Laboratory results from ChEMBL document CHEMBL6074645, “Structure-based virtual screening discovers novel PKMYT1 inhibitors” (RSC Med Chem, 2024).

These compounds were tested against T1, Membrane-associated tyrosine- and threonine-specific cdc2-inhibitory kinase (Homo sapiens, UniProt Q99640) (assay: Inhibition of PKMYT1 (unknown origin) incubated for 1 hr by LanthaScreen Eu kinase binding method).
T1 sequence (Q99640 whole entry): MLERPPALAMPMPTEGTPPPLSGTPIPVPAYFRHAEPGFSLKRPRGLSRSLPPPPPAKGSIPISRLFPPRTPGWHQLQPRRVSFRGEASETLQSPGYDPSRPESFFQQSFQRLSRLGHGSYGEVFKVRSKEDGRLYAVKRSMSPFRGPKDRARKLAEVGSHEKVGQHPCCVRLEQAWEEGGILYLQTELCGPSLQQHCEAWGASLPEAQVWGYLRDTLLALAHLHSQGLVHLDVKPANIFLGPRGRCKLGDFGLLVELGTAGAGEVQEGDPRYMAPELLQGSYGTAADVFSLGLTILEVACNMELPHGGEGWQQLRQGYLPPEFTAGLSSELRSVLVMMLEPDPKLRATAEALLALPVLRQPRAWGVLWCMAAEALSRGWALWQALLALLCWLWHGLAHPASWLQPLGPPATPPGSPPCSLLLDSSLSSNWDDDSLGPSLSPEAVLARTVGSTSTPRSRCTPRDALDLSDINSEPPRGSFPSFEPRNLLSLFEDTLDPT

SMILES	IC50
O=C(O[C@@H]1Cc2c(O)cc(O)cc2O[C@@H]1c1cc(O)c(O)c(O)c1)c1cc(O)c(O)c(O)c1 [EPIGALOCATECHIN GALLATE]	137 nM
O=C(O[C@@H]1Cc2c(O)cc(O)cc2O[C@H]1c1cc(O)c(O)c(O)c1)c1cc(O)c(O)c(O)c1 [GALLOCATECHIN GALLATE]	159 nM
O=c1c(-c2ccc(O)cc2)coc2cc(O)cc(O)c12 [GENISTEIN]	78000 nM
COc1ccc(-c2oc3c(CC=C(C)C)c(O)cc(O)c3c(=O)c2O)cc1 [ICARITIN]	51000 nM
O=c1cc(-c2ccc(O)c(O)c2)oc2cc(O)cc(O)c12 [LUTEOLIN]	1500 nM

Each compound was assayed against T1, Membrane-associated tyrosine- and threonine-specific cdc2-inhibitory kinase (assay: Displacement of fluorescently labeled tracer from human PKMYT1 (75 to 362 residues) expressed in Escherichia coli BL21 (DE3) by fluorescence anisotropy based kinase assay).

SMILES	IC50
CCN(CC)CCOc1ccc(Nc2ncc3cc(-c4c(Cl)cccc4Cl)c(=O)n(C)c3n2)cc1 [PD-0166285]	72 nM
